The results in this text go back to ChEMBL document CHEMBL5505992, “Novel membrane-targeting isoxanthohumol-amine conjugates for combating methicillin-resistant Staphylococcus aureus (MRSA) infections” (Eur J Med Chem, 2024).

Broadly, the MIC is the lowest concentration found to suppress growth. The low end stands for inhibition by little substance, the high end for a need for much substance. A word on the HC50: it is the concentration giving 50% haemolysis. Lower therefore signals stronger haemolysis.

≈ marks a conversion by molar mass, not a printed value.

Data set [1] relates to Staphylococcus aureus. Put plainly: Antibacterial activity against methicillin-resistant Staphylococcus aureus clinical isolate MRSA-20 measured after 16 to 18 hrs by CLSI method. Format: functional. The conditions noted are these: time 16-18 hrs.
Data set [2] relates to Staphylococcus aureus. Put plainly: Antibacterial activity against methicillin-resistant Staphylococcus aureus clinical isolate MRSA-13 measured after 16 to 18 hrs by CLSI method. The conditions noted are these: time 16-18 hrs. The class given is functional.
The test system of data set [3] is Staphylococcus aureus. Put plainly: Antibacterial activity against Staphylococcus aureus ATCC 29213 measured after 16 to 18 hrs by CLSI method. The class given is functional. The following applies: time 16-18 hrs.
Data set [4] deals with Staphylococcus aureus. Put plainly: Antibacterial activity against methicillin-resistant Staphylococcus aureus clinical isolate MRSA-17 measured after 16 to 18 hrs by CLSI method. Format: functional. The following applies: time 16-18 hrs.
Data set [5] has as its system Staphylococcus aureus. In words: Antibacterial activity against methicillin-resistant Staphylococcus aureus clinical isolate MRSA-16 measured after 16 to 18 hrs by CLSI method. The conditions noted are these: time 16-18 hrs. The class given is functional.
The test system of data set [6] is Staphylococcus aureus. In words: Antibacterial activity against methicillin-resistant Staphylococcus aureus clinical isolate MRSA-23 measured after 16 to 18 hrs by CLSI method. The class given is functional. The conditions noted are these: time 16-18 hrs.
The subject of the next data set is Escherichia coli. Put plainly: Antibacterial activity against Escherichia coli ATCC25922 measured after 16 to 18 hrs by CLSI method. The class given is functional. The conditions noted are these: time 16-18 hrs.
Data set [7] in a line: Selectivity index, ratio of HC50 for hemolytic activity in sheep erythrocytes to MIC for antibacterial activity against Staphylococcus aureus ATCC 29213. The conditions noted are these: read-out: Selectivity Index. Format: toxicity, cell-based.
Data set [8] has as its system Staphylococcus aureus. Put plainly: Antibacterial activity against methicillin-resistant Staphylococcus aureus clinical isolate MRSA-22 measured after 16 to 18 hrs by CLSI method. Format: functional. The following applies: time 16-18 hrs.
The nature of data set [9]: Hemolytic activity in sheep erythrocytes incubated for 1 hr by absorbance based analysis. Format: toxicity, cell-based, Ovis aries, Erythrocyte.
The subject of data set [10] is Staphylococcus aureus. Put plainly: Antibacterial activity against methicillin-resistant Staphylococcus aureus clinical isolate MRSA-14 measured after 16 to 18 hrs by CLSI method. Format: functional. The following applies: time 16-18 hrs.
Data set [11] deals with Staphylococcus aureus. In words: Antibacterial activity against methicillin-resistant Staphylococcus aureus clinical isolate MRSA-21 measured after 16 to 18 hrs by CLSI method. Format: functional. The following applies: time 16-18 hrs.
The subject of data set [12] is Staphylococcus aureus. In words: Antibacterial activity against methicillin-resistant Staphylococcus aureus clinical isolate MRSA-11 measured after 16 to 18 hrs by CLSI method. The class given is functional. The following applies: time 16-18 hrs.
Data set [13] has as its system Staphylococcus aureus. Put plainly: Antibacterial activity against methicillin-resistant Staphylococcus aureus clinical isolate MRSA-18 measured after 16 to 18 hrs by CLSI method. The class given is functional. The conditions noted are these: time 16-18 hrs.

Take `COc1cc(OCCCCCN2CCCC(C)C2)c(CC=C(C)C)c2c1C(=O)CC(c1ccc(OCCCCCN3CCCC(C)C3)cc1)O2` (stereo not given): the MIC with Staphylococcus aureus [1] was 8 µg/mL (≈ 11.6 µM); with Staphylococcus aureus [2], 8 µg/mL (≈ 11.6 µM); with Staphylococcus aureus [3], 16 µg/mL (≈ 23.2 µM); in the data set on Staphylococcus aureus [4], 8 µg/mL (≈ 11.6 µM); in the data set on Staphylococcus aureus [5], 8 µg/mL (≈ 11.6 µM); against Staphylococcus aureus [6], 8 µg/mL (≈ 11.6 µM). Besides, the MIC in the data set on Escherichia coli is greater than 128 µg/mL; in the data set on Staphylococcus aureus [8], 8 µg/mL (≈ 11.6 µM); against Staphylococcus aureus [10], 8 µg/mL (≈ 11.6 µM); with Staphylococcus aureus [11], 4 µg/mL (≈ 5.81 µM); in the data set on Staphylococcus aureus [12] it was 8 µg/mL (≈ 11.6 µM); against Staphylococcus aureus [13] it was 8 µg/mL (≈ 11.6 µM). The selectivity ratio in data set [7] was determined as 13.2. The concentration for 50% haemolysis (HC50) at 1 h in data set [9] worked out at 211 µg/mL.
Consider `COc1cc(OCCCN2CCCCC2C)c(CC=C(C)C)c2c1C(=O)CC(c1ccc(OCCCN3CCCCC3C)cc1)O2` (stereo not given), for which the MIC against Staphylococcus aureus [1] is 32 µg/mL (≈ 50.6 µM); against Staphylococcus aureus [2], 32 µg/mL (≈ 50.6 µM); against Staphylococcus aureus [3] it was 32 µg/mL (≈ 50.6 µM); against Staphylococcus aureus [4], 32 µg/mL (≈ 50.6 µM); with Staphylococcus aureus [5], 16 µg/mL (≈ 25.3 µM); in the data set with Staphylococcus aureus [6], 32 µg/mL (≈ 50.6 µM). The MIC with Escherichia coli was greater than 128 µg/mL; in the data set on Staphylococcus aureus [8], 16 µg/mL (≈ 25.3 µM); in the data set on Staphylococcus aureus [10] it was 32 µg/mL (≈ 50.6 µM); with Staphylococcus aureus [11] it was 32 µg/mL (≈ 50.6 µM); with Staphylococcus aureus [12] it was 32 µg/mL (≈ 50.6 µM); against Staphylococcus aureus [13], 32 µg/mL (≈ 50.6 µM). The selectivity ratio in data set [7] was greater than 40. This molecule displayed an HC50 at 1 h in data set [9] greater than 1280 µg/mL.
For `COc1cc(OCCCCCN2CCOCC2)c(CC=C(C)C)c2c1C(=O)CC(c1ccc(OCCCCCN3CCOCC3)cc1)O2` (stereo not given), the MIC with Staphylococcus aureus [1], in the data set with Staphylococcus aureus [2], in the data set on Staphylococcus aureus [3], in the data set with Staphylococcus aureus [4], with Staphylococcus aureus [5] and against Staphylococcus aureus [6] was 16 µg/mL (≈ 24.1 µM) throughout. Besides, the minimal inhibitory concentration (MIC) is greater than 128 µg/mL against Escherichia coli; 8 µg/mL (≈ 12 µM) in the data set with Staphylococcus aureus [8]; 16 µg/mL (≈ 24.1 µM) with Staphylococcus aureus [10]; 16 µg/mL (≈ 24.1 µM) with Staphylococcus aureus [11]; 16 µg/mL (≈ 24.1 µM) against Staphylococcus aureus [12]; 16 µg/mL (≈ 24.1 µM) against Staphylococcus aureus [13]. For the same molecule, the selectivity ratio in data set [7] was greater than 80. This molecule had a concentration for 50% haemolysis (HC50) at 1 h in data set [9] greater than 1280 µg/mL.
For the molecule `COc1cc(OCCCCCN2CCSCC2)c(CC=C(C)C)c2c1C(=O)CC(c1ccc(OCCCCCN3CCSCC3)cc1)O2` (stereo not given), the MIC was greater than 128 µg/mL with Staphylococcus aureus [1]; greater than 128 µg/mL against Staphylococcus aureus [2]; 32 µg/mL (≈ 45.9 µM) in the data set on Staphylococcus aureus [3]; greater than 128 µg/mL against Staphylococcus aureus [4]; greater than 128 µg/mL against Staphylococcus aureus [5]; greater than 128 µg/mL in the data set on Staphylococcus aureus [6]. Besides, the MIC with Escherichia coli, in the data set with Staphylococcus aureus [8], in the data set on Staphylococcus aureus [10], against Staphylococcus aureus [11], in the data set on Staphylococcus aureus [12] and against Staphylococcus aureus [13] was greater than 128 µg/mL each time. In [7], the selectivity ratio is greater than 20. In data set [9], this molecule showed an HC50 at 1 h greater than 640 µg/mL.
Regarding `COc1cc(OCCCCN2CCCCC2C)c(CC=C(C)C)c2c1C(=O)CC(c1ccc(OCCCCN3CCCCC3C)cc1)O2` (stereo not given), the minimal inhibitory concentration (MIC) with Staphylococcus aureus [1] amounted to 32 µg/mL (≈ 48.4 µM); in the data set on Staphylococcus aureus [2], 32 µg/mL (≈ 48.4 µM); in the data set with Staphylococcus aureus [3], 32 µg/mL (≈ 48.4 µM); against Staphylococcus aureus [4], 16 µg/mL (≈ 24.2 µM); against Staphylococcus aureus [5], 32 µg/mL (≈ 48.4 µM); in the data set on Staphylococcus aureus [6], 32 µg/mL (≈ 48.4 µM). In addition, the MIC was greater than 128 µg/mL against Escherichia coli; 16 µg/mL (≈ 24.2 µM) in the data set with Staphylococcus aureus [8]; 16 µg/mL (≈ 24.2 µM) in the data set on Staphylococcus aureus [10]; 32 µg/mL (≈ 48.4 µM) with Staphylococcus aureus [11]; 8 µg/mL (≈ 12.1 µM) with Staphylococcus aureus [12]; 32 µg/mL (≈ 48.4 µM) in the data set with Staphylococcus aureus [13]. Further, the selectivity ratio in data set [7] is greater than 8.6. In data set [9], this molecule gave an HC50 at 1 h of 275 µg/mL.
